According to patent US20250221944A1, “COMPOSITION FOR PREVENTING OR TREATING MULTIPLE MYELOMA COMPRISING NOVEL CHROMANON COMPOUND AS ACTIVE INGREDIENT” (KBLUEBIO INC, priority 2022, published 2025):

Key:
RPMI8226-GFP-FLUC cells = experiment: mouse model of multiple myeloma (RPMI8226-GFP-FLUC, tail vein); type: in vivo, NSG mice; details: 5 mg/kg intravenously, 2 days per week for 3 cycles, untreated group all died on day 50
Experimental: A total of 12 male NSG (NOD scid gamma) mice were used. The animals were housed in a semi-specific pathogen free (Semi-SPF) animal house at the Chonnam National University Center for Biomedical Science Convergence at a temperature of 20-24° C., humidity of 40-60%, and a 12-hour light/dark cycle, with 5 animals per cage. Sterile water and feed were provided ad libitum, and all experimental procedures were in accordance with the Animal welfare act and approved by the Institutional Animal Care and Use Committee of Chonnam National University (Approval No.: CNU IACUC-H-2020-36). […]
Mice were injected with RPMI8226-GFP-FLUC cells, and 8 days later, cancer formation was determined using an in vivo imaging system (IVIS) (NightOWL II LB983 NC100, Berthold, Germany). […]
Meanwhile, a multiple myeloma cell line (RPMI8226) was transfected with a puromycin resistance gene and a luciferase-GFP gene using a lentiviral vector at the EF1a promoter site, and the dynamics of MM cells in mice were identified and monitored by an in vivo bioluminescence imaging assay (FIG. 28). The transgenic multiple myeloma cell line, which can be monitored in vivo, was injected 1×10^7 cells/ml through the tail vein of 6-11 week old combined immunodeficient NSG mice to establish a mouse model of multiple myeloma. […]

[1] = initial acute toxicity evaluation (liver, kidney, cardiac markers); type: in vivo; details: rats, 5 mg/kg intravenously (femoral vein), blood 3 hours later
Experimental: As an initial toxicity evaluation of KBB-NX series synthetic compounds, KBB-NX-16 and KBB-NX-20 were injected intravenously into the femoral vein of rats at a dose of 5 mg/kg and blood was collected 3 hours later to test for markers of liver toxicity (marker ALT), nephrotoxicity (BUN, creatinine) and cardiotoxicity (CK-MB, myoglobin).

Nc1cccc2c1CN(C1CCC(=O)NC1=O)C2=O (centres unmarked) [lenalidomide, 3-(4-amino-1-oxoisoindolin-2-yl)piperidine-2,6-dione, reference compound]
survival after transplantation (RPMI8226-GFP-FLUC cells): 64 days

COc1cc(O)cc2c1C(=O)CC(c1ccc(C)s1)O2 (centres unmarked) [KBB-NX-20, 7-hydroxy-5-methoxy-2-(5-methylthiophene-2-yl)chroman-4-one]
cardiotoxicity (CK-MB, myoglobin) [1]: did not exhibit significant | hepatotoxicity (marker ALT) [1]: did not exhibit significant | nephrotoxicity (BUN, creatinine) [1]: did not exhibit significant

COc1cc(O)cc(O)c1C(=O)/C=C/c1ccc(O)cc1 [KBB-NX-2, (E)-1-(2,4-dihydroxy-6-methoxyphenyl)-3-(4-hydroxyphenyl)prop-2-en-1-one]
survival after transplantation (RPMI8226-GFP-FLUC cells): 64 days

COc1cc(O)c(CC=C(C)C)c2c1C(=O)CC(c1ccc(C(C)C)cc1)O2 (centres unmarked) [KBB-NX-16, 7-hydroxy-2-(4-isopropylphenyl)-5-methoxy-8-(3-methylbut-2-en-1-yl)chroman-4-one]
cardiotoxicity (CK-MB, myoglobin) [1]: did not exhibit significant | hepatotoxicity (marker ALT) [1]: did not exhibit significant | nephrotoxicity (BUN, creatinine) [1]: did not exhibit significant
